Reference: ChEMBL document CHEMBL1201862, “PubChem BioAssay data set” (2004)
The source made the active and inactive calls.

Columns and labels:
[1] = THP-1 cell cytotoxicity, dose response, cytotoxicity control for non-replicating M. tuberculosis project (AID 489025); assay type: functional
[2] = cells; assay type: functional
[3] = Vero E6 cell cytotoxicity, dose response, cytotoxicity control for non-replicating M. tuberculosis project, secondary assay (AID 492998); assay type: functional, VeroE6; details: Vero C1008
[4] = HepG2 cell cytotoxicity, dose response, cytotoxicity control for non-replicating M. tuberculosis project (AID 489018); assay type: functional; details: Mycobacterium tuberculosis
[5] = biological target: T1, Carboxy-terminal domain RNA polymerase II polypeptide A small phosphatase 1 (Homo sapiens, UniProt Q9GZU7); assay: CTDSP1 inhibitors, concentration-response, biochemical, absorbance readout, ultra-high-throughput screen actives (AID 540297); assay type: functional
T1 sequence (Q9GZU7 whole entry): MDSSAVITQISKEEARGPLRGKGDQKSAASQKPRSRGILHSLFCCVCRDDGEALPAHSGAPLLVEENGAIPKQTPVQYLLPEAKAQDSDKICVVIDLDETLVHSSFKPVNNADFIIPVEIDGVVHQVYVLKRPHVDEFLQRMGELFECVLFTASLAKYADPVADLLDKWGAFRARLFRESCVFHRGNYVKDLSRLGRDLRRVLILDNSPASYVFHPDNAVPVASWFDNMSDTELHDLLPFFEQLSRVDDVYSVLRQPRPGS

[6] = biological target: T2, Apoptotic protease-activating factor 1 (Homo sapiens, UniProt O14727); assay type: functional
T2 sequence (O14727 whole entry): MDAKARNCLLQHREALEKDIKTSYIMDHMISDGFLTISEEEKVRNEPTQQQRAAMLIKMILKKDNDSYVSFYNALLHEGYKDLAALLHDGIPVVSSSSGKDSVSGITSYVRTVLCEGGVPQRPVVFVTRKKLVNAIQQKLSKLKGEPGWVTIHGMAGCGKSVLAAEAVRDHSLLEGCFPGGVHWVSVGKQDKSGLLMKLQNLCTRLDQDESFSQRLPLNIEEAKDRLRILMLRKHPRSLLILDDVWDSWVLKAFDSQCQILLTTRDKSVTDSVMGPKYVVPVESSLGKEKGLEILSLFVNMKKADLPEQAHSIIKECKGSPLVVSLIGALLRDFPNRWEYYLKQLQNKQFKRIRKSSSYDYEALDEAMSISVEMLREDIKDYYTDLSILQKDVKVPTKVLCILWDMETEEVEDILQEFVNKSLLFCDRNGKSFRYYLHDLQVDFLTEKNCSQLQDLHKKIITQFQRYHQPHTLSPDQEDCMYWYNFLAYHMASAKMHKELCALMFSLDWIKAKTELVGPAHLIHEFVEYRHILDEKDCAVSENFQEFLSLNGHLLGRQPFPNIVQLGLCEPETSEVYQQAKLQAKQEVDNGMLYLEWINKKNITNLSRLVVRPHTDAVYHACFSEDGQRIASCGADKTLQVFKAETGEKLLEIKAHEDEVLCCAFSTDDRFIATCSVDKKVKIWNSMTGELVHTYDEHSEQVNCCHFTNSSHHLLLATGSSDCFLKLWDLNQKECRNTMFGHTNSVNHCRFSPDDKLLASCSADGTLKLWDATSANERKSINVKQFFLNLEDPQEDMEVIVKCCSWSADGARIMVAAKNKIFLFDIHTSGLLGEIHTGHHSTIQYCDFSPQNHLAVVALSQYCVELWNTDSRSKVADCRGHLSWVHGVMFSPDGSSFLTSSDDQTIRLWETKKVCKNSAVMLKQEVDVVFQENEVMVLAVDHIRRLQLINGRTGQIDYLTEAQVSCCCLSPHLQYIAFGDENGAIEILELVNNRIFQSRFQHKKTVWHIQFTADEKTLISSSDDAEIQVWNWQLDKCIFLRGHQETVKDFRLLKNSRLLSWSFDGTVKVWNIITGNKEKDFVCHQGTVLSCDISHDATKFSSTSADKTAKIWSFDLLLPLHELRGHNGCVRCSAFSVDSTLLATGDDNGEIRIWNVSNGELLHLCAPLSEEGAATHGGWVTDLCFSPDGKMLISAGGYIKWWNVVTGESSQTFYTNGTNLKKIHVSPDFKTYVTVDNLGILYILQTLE

[7] = system: INS1; assay: INS-1E survival protection against cytokine death – cell-based, luminescence, retest, dose response (AID 449756); assay type: functional; details: Rattus norvegicus;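 further: cell death triggered by IL-1 beta plus TNF-alpha plus IFN-gamma mixture; protective hits raise ATP signal compared with cytokine alone wells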
[8] = viability of HCT116 lacking mutant beta-catenin – cell-based, human colon tumor, dose response (AID 1045); assay type: functional;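 further: HCT116 colon tumor cells with beta catenin knocked out; cells exposed to compound for 60 hours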
[9] = microbe, parasite or virus in culture; assay type: functional; details: Mycobacterium tuberculosis
[10] = viability of PTEN-deleted HCT116 cells – cell-based, HCT116 PTEN knockout, dose response (AID 1047); assay type: functional;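 further: HCT116 colon tumor cells with PTEN knocked out; cells exposed to compound for 60 hours before readout; potency for loss of cell viability measured by luminescence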
[11] = biological target: Heat shock protein HSP 90-alpha (Homo sapiens, UniProt P07900); assay type: functional, organism-based
[12] = biological target: T3, Corticotropin-releasing factor receptor 2/Corticotropin-releasing factor-binding protein (Homo sapiens, UniProt P24387+Q13324); assay: activators of CRF receptor 2 with binding protein – uHTS hits, confirmation (AID 602473); assay type: functional; details: read-out: EC50_Mean
T3 sequence (Q13324 whole entry): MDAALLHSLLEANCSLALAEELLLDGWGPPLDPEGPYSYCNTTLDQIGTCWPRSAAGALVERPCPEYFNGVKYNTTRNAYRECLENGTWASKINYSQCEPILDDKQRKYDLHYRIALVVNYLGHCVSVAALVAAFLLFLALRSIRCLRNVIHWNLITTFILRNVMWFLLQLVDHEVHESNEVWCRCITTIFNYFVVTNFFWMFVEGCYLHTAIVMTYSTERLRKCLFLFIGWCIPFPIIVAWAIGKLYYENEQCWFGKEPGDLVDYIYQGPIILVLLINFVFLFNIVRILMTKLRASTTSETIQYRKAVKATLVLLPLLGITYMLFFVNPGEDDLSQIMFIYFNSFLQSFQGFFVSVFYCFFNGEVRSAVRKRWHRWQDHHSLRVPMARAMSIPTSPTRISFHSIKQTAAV
T3 sequence (P24387 whole entry): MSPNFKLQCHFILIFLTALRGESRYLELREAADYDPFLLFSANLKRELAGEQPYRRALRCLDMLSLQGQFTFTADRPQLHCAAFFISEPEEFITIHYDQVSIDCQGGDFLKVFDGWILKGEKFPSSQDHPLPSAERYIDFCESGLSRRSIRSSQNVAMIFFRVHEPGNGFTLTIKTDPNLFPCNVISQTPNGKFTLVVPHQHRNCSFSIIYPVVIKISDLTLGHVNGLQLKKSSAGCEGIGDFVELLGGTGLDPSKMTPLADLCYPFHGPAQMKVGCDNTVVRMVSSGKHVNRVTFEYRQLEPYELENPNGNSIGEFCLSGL

[13] = biological target: Glucose-6-phosphate 1-dehydrogenase (Homo sapiens, UniProt P11413); assay: inhibition of Homo sapiens G6PD, dose series – biochemical, fluorescence, selectivity assay for P. falciparum G6PD inhibitor project, dose response (AID 504792); assay type: functional
Glucose-6-phosphate 1-dehydrogenase, sequence (P11413 whole entry): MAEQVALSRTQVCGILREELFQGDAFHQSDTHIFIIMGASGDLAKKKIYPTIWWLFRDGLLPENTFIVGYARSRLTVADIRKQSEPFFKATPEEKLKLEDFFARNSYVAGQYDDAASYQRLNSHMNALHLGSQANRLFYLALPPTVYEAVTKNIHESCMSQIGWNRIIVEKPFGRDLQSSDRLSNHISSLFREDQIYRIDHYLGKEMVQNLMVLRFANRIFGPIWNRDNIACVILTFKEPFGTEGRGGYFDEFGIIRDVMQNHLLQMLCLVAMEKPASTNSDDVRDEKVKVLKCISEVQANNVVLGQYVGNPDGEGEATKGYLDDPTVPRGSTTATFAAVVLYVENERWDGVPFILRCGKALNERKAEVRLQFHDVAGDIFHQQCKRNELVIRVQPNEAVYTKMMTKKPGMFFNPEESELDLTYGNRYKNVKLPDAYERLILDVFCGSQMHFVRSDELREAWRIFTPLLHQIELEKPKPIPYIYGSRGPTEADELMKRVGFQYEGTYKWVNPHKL

[14] = biological target: T3, Corticotropin-releasing factor receptor 2/Corticotropin-releasing factor-binding protein; assay: Dose Response confirmation of uHTS hits for small molecule antagonists of the CRF-binding protein and CRF-R2 receptor complex.; assay type: functional; details: read-out: IC50_Mean
[15] = biological target: Nonstructural protein 1 (Influenza A virus, UniProt Q194T2); assay type: functional, Influenza A virus (A/California/07/2009(H1N1))
Nonstructural protein 1, sequence (Q194T2 whole entry): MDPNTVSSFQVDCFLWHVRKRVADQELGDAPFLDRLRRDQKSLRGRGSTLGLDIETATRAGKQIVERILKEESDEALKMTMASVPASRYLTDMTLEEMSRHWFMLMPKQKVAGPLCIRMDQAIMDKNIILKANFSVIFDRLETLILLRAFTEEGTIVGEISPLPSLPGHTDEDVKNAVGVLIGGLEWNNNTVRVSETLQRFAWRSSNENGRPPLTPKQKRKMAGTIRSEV

[16] = system: Streptococcus; assay: GAS UMAA2166 growth inhibition – luminescence, BacTiterGlo, counter-screen for streptokinase expression inhibitor project, dose response (AID 1915); assay type: functional, organism-based; details: Streptococcus;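 further: potency for reduction of bacterial viability or growth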
[17] = biological target: T4, Streptokinase A (Streptococcus pyogenes serotype M1, UniProt P10520); assay: viability-normalized secreted streptokinase activity reduction – plasminogen activation absorbance, OD405, dose response (AID 1914); assay type: functional, Streptococcus pyogenes M1 GAS;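 further: secreted streptokinase activity via plasminogen activation per viability signal from cell pellet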
T4 sequence (P10520 whole entry): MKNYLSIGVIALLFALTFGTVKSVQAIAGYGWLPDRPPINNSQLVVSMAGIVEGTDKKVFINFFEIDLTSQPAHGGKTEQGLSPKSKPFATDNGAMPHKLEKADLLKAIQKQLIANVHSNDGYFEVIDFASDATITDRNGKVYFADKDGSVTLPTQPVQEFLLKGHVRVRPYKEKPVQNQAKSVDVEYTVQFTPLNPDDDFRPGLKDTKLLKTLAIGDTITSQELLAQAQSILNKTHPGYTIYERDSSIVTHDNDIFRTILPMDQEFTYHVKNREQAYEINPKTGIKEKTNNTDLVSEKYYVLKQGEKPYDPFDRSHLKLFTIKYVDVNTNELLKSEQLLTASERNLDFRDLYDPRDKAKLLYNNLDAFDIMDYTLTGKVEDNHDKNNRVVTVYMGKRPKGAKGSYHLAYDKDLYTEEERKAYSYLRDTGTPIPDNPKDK

[18] = system: Streptococcus sp. 'group A'; assay: Streptococcus pyogenes SK(-)GAS viability under kanamycin – luminescence, BacTiterGlo, confirmation, counter-screen for streptokinase expression inhibitor project, dose response (AID 1900); assay type: functional, organism-based; details: Streptococcus sp. 'group A'

Which results are given for `Cc1cc(NCc2ccccn2)n2nc(C)c(-c3ccccc3)c2n1`?
CC50 [1]: 6.19 µM (active); IC50 [2]: 3.2 µM (active); CC50 [3]: 13.6 µM (active); CC50 [4]: 3.11 µM (active)

With `O=C(Cn1cnc2scc(-c3cccc([N+](=O)[O-])c3)c2c1=O)NCc1ccco1` as the compound, how does the IC50 [5] read?
Its IC50 is 3.15 µM (active).

What does the source list for `CC1CCN(CCc2nc3cc(NC(=O)COc4ccc(Cl)cc4)ccc3n2C)CC1`?
CC50 [1]: 26.1 µM (active); IC50 [2]: 28.1 µM (active); CC50 [4]: > 20 µM (active)

With `CCOc1ccccc1N1CCN(C(=O)C2c3ccccc3Oc3ccccc32)CC1` as the compound, how does the IC50 [6] read?
Its IC50 is 29.3 µM (active).

Which results are given for `CC(=O)Oc1c(C)cc(Cl)cc1C(=O)Nc1ccc([N+](=O)[O-])cc1Cl`?
AC50 [7]: 1.37 µM (active); CC50 [1]: 5.03 µM (active); IC50 [2]: 9.46 µM (active); CC50 [3]: 3.96 µM (active); EC50 [8]: 2.16 µM (active); CC50 [9]: 1.54 µM (active); CC50 [4]: 7.96 µM (active); EC50 [10]: 1.99 µM (active)

With `Cc1cccc(C)c1NC(=O)C(Cl)C(=O)c1ccccc1` (stereo not drawn) as the compound, how does the AC50 [11] read?
Its AC50 is 0.855 µM (active).

With `CN1C(=O)C(N=Nc2ccc([N+](=O)[O-])cc2)SC1=S` (stereo not drawn) as the compound, how does the EC50 [12] read?
Its EC50 is 1.69 µM (active).

What about the IC50 [13] of the same compound?
The IC50 was > 80 µM (inactive).

What about the IC50 [14] of the same compound?
The IC50 was < 0.368 µM (active).

What about the AC50 [11] of the same compound?
The AC50 was 14.5 µM (active).

For `CN(C)c1ccc(N=Nc2ccc3ncccc3c2)cc1`, which IC50 [15] is on record?
The IC50 was 20.4 µM (active).

Which IC50 [13] does the source give for `Cc1cccc(OCC(=O)NCC(=O)N/N=C/c2ccccc2)c1` here?
The IC50 was > 80 µM (inactive).

Which EC50 [16] does the source give for `N[C@@H](C(=O)N[C@@H]1C(=O)N2C(C(=O)O)=C(Cl)CS[C@H]12)c1ccccc1` [CEFACLOR ANHYDROUS] here?
Its EC50 is 1.32 µM (active).

What about the EC50 [17] of the same compound?
Its EC50 is > 150 µM (not active).

And the EC50 [18]?
The EC50 was 0.559 µM (active).

What about the IC50 [5] of the same compound?
Its IC50 is 7.18 µM (active).
